{"source": "patent US20110014269A1", "about": "“CIVAMIDE PATCH FOR LOCALIZED POST-INCISIONAL NEUROPATHIC PAIN” (WINSTON LABORATORIES, INC., priority 2009, published 2011)", "origin": "cited, not measured here", "settings": "treatment of painful, inflammatory or allergic disorders", "data": [{"smiles": "COc1cc(CNC(=O)CCCC/C=C\\C(C)C)ccc1O", "note": "[Civamide, cis-8-methyl-N-vanillyl-6-nonenamide]", "values": [{"measurement": "burning and stinging relative to capsaicin's use", "result": "significantly less"}]}]}
